“And” between values parts separate entries of the source, which are not always exact repeats. Equal entries are not always repeated. Values belong to the compound of their own block, whether it stands above or below them.
Test: In vitro release
Assay type: physicochemical
Settings: for Cumulative TA Release / Cumulative Dex Release / Cumulative HC Release / Cumulative Pred Release: samples and avg; for Cumulative TA Release (%): FBS; for Cumulative TA Release (%) / Cumulative SM Release (%), avg / Cumulative SM Release (ng), avg / Cumulative Dex Release (%) / Cumulative HC Release (%) / Cumulative Pred Release (%): avg; for Cumulative SM Release (%), avg / Cumulative SM Release (ng), avg: Fig 6c; for Cumulative Dex Release / Cumulative HC Release / Cumulative Pred Release: 4 ml PBS; for Cumulative Dex Release (%) / Cumulative HC Release (%) / Cumulative Pred Release (%): PBS; for Cumulative Pred Release: Fig 5a pellet 1x1 mm; for Cumulative Pred Release (%): Fig 5a pellet
Experimental: Pellets for release studies. Crystalline drug dimers were weighed on a stainless steel coupon. In the case of blends with a second drug, the dimer and drug were mixed at the desired mass ratio with mortar and pestle prior to weighing. Samples were transferred to a heat press (Carver Laboratory Press). A PTFE mold containing an array of 1 mm diameter holes of 1 mm depth was placed on top of the melt, and pressure was applied for 2 min. Molded pellets were cooled to room temperature and punched out of the mold, yielding a pellet of 1 mm height × 1 mm diameter.
Release studies were carried out using different media, including PBS (pH 7.4, Gibco), 100% FBS (Sigma, F1051), 1% FBS in PBS pH 7.4, and 3.6% BSA (Sigma, A7906) in PBS (pH 7.4, Gibco). […] Samples were incubated in release medium at 37 °C under constant agitation on an orbital shaker at 115 rpm (VWR). At designated timepoints, sampling was performed by complete removal of medium and replenishment with fresh buffer. Sampling timepoints included 24 h and then every 3–4 days thereafter. For PBS release conditions, samples were analyzed directly. For samples with protein (100% FBS, 1% FBS, 3.6% BSA), protein was precipitated by addition of acetonitrile. Samples were vortexed and centrifuged to separate extracted drug from precipitated protein. The supernatant was then analyzed for drug concentration by HPLC.

[1] = Fig 6a heterodimer pellet, Day 1
[2] = Fig 6a heterodimer pellet, Day 1, mean
[3] = Fig 6a heterodimer pellet, Day 5
[4] = Fig 6a heterodimer pellet, Day 5, mean
[5] = Fig 6a heterodimer pellet, Day 7
[6] = Fig 6a heterodimer pellet, Day 7, mean
[7] = Fig 6a heterodimer pellet, Day 11
[8] = Fig 6a heterodimer pellet, Day 11, mean
[9] = Fig 6a heterodimer pellet, Day 14
[10] = Fig 6a heterodimer pellet, Day 14, mean

Structure (SMILES): CC1(C)OC2CC3C4CCC5=CC(=O)C=CC5(C)C4(F)C(O)CC3(C)C2(C(=O)COC(=O)OCCOCCOCCOC(=O)OCC(=O)C23OC(C)(C)OC2CC2C4CCC5=CC(=O)C=CC5(C)C4(F)C(O)CC23C)O1 (centres unmarked) [TA-TEG-TA]
Cumulative TA Release (Fig 5b pellet 1x1 mm, 4 ml FBS, Day 3): 5664.02 ng and 5830.61 ng and 10508.43 ng and 8884.74 ng and 7887.68 ng
Cumulative TA Release (Fig 5b pellet 1x1 mm, 4 ml FBS, Day 3, mean): 7755.10 ng
Cumulative TA Release (Fig 5b pellet 1x1 mm, 4 ml FBS, Day 10): 24788.43 ng and 27087.36 ng and 33297.79 ng and 37315.92 ng and 18944.25 ng
Cumulative TA Release (Fig 5b pellet 1x1 mm, 4 ml FBS, Day 10, mean): 28286.75 ng
Cumulative TA Release (Fig 5b pellet 1x1 mm, 4 ml FBS, Day 14): 34850.40 ng and 35016.99 ng and 40361.16 ng and 49853.28 ng and 32172.64 ng
Cumulative TA Release (Fig 5b pellet 1x1 mm, 4 ml FBS, Day 14, mean): 38450.90 ng
Cumulative TA Release (%) (Fig 5b pellet, Day 1): 0.13%
Cumulative TA Release (%) (Fig 5b pellet, Day 3): 0.96%
Cumulative TA Release (%) (Fig 5b pellet, Day 7): 2.37%
Cumulative TA Release (%) (Fig 5b pellet, Day 10): 3.49%
Cumulative TA Release (%) (Fig 5b pellet, Day 14): 4.75%
Cumulative TA Release (Fig 5f microparticles, 10 ml FBS, 1st time point (day not given)): 2977.29 ng and 2848.37 ng and 4097.61 ng
Cumulative TA Release (Fig 5f microparticles, 10 ml FBS, 1st time point (day not given), mean): 3307.76 ng
Cumulative TA Release (Fig 5f microparticles, 10 ml FBS, 2nd time point (day not given)): 14594.84 ng and 16537.75 ng and 15417.43 ng
Cumulative TA Release (Fig 5f microparticles, 10 ml FBS, 2nd time point (day not given), mean): 15516.68 ng
Cumulative TA Release (Fig 5f microparticles, 10 ml FBS, 3rd time point (day not given)): 49825.05 ng and 51101.90 ng and 51098.83 ng
Cumulative TA Release (Fig 5f microparticles, 10 ml FBS, 3rd time point (day not given), mean): 50675.26 ng
Cumulative TA Release (Fig 5f microparticles, 10 ml FBS, 4th time point (day not given)): 60024.55 ng and 61820.14 ng and 64573.36 ng
Cumulative TA Release (Fig 5f microparticles, 10 ml FBS, 4th time point (day not given), mean): 62139.35 ng
Cumulative TA Release (Fig 5f microparticles, 10 ml FBS, 5th time point (day not given)): 83317.99 ng and 79582.57 ng and 89772.87 ng
Cumulative TA Release (Fig 5f microparticles, 10 ml FBS, 5th time point (day not given), mean): 84224.47 ng
Cumulative TA Release (%) (Fig 5f microparticles, 1st time point): 2.67%
Cumulative TA Release (%) (Fig 5f microparticles, 2nd time point): 12.50%
Cumulative TA Release (%) (Fig 5f microparticles, 3rd time point): 40.83%
Cumulative TA Release (%) (Fig 5f microparticles, 4th time point): 50.07%
Cumulative TA Release (%) (Fig 5f microparticles, 5th time point): 67.87%

Structure (SMILES): CCN(CC)CCNC(=O)c1c(C)[nH]c(/C=C2\C(=O)Nc3ccc(F)cc32)c1C [sunitinib malate, reference compound]
Cumulative SM Release (%), avg (Day 1): 3.88%
Cumulative SM Release (ng), avg (Day 1): 5838.79 ng
Cumulative SM Release (%), avg (Day 3): 5.66%
Cumulative SM Release (ng), avg (Day 3): 8518.35 ng
Cumulative SM Release (%), avg (Day 8): 6.76%
Cumulative SM Release (ng), avg (Day 8): 10163.91 ng
Cumulative SM Release (%), avg (Day 10): 7.42%
Cumulative SM Release (%), avg (Day 14): 8.14%
Cumulative SM Release (ng), avg (Day 14): 12242.96 ng

Structure (SMILES): CC1CC2C3CCC4=CC(=O)C=CC4(C)C3(F)C(O)CC2(C)C1(O)C(=O)COC(=O)OCCOCCOCCOC(=O)OCC(=O)C1(O)CCC2C3CCC4=CC(=O)CCC4(C)C3C(O)CC21C (centres unmarked) [Dex-TEG-HC]
Cumulative Dex Release [1]: 81.55 ng and 74.59 ng and 99.31 ng
Cumulative HC Release [1]: 224.52 ng and 206.99 ng and 167.90 ng
Cumulative Dex Release [2]: 85.15 ng
Cumulative HC Release [2]: 199.80 ng
Cumulative Dex Release [3]: 2326.27 ng and 2325.49 ng and 1831.14 ng
Cumulative HC Release [3]: 2952.91 ng and 3019.31 ng and 2390.05 ng
Cumulative Dex Release [4]: 2160.97 ng
Cumulative HC Release [4]: 2787.43 ng
Cumulative Dex Release [5]: 3098.36 ng and 2980.56 ng and 2543.37 ng
Cumulative HC Release [5]: 4047.00 ng and 4113.39 ng and 3426.84 ng
Cumulative Dex Release [6]: 2874.10 ng
Cumulative HC Release [6]: 3862.41 ng
Cumulative Dex Release [7]: 4911.68 ng and 4696.17 ng and 4037.68 ng
Cumulative HC Release [7]: 6283.65 ng and 6328.14 ng and 5362.18 ng
Cumulative Dex Release [8]: 4548.51 ng
Cumulative HC Release [8]: 5991.32 ng
Cumulative Dex Release [9]: 6135.25 ng and 5788.05 ng and 5026.44 ng
Cumulative HC Release [9]: 7866.10 ng and 7754.88 ng and 6681.74 ng
Cumulative Dex Release [10]: 5649.91 ng
Cumulative HC Release [10]: 7434.24 ng
Cumulative Dex Release (%) [1]: 0.0441%
Cumulative HC Release (%) [1]: 0.11%
Cumulative Dex Release (%) [3]: 1.12%
Cumulative HC Release (%) [3]: 1.51%
Cumulative Dex Release (%) [5]: 1.49%
Cumulative HC Release (%) [5]: 2.09%
Cumulative Dex Release (%) [7]: 2.35%
Cumulative HC Release (%) [7]: 3.25%
Cumulative Dex Release (%) [9]: 2.92%
Cumulative HC Release (%) [9]: 4.03%

Now from value to compound, other results behind:

Cumulative Pred Release (Day 1): 4849.98 ng and 3117.45 ng and 2848.01 ng
Cumulative Pred Release (Day 1, mean): 3605.15 ng
Cumulative Pred Release (Day 3): 9969.33 ng and 8304.40 ng and 8589.91 ng
Cumulative Pred Release (Day 3, mean): 8954.55 ng
Cumulative Pred Release (Day 7, mean): 26001.30 ng
Cumulative Pred Release (Day 14, mean): 52216.70 ng
Cumulative Pred Release (%) (Day 1): 0.38%
Cumulative Pred Release (%) (Day 3): 0.94%
Cumulative Pred Release (%) (Day 7): 2.72%
Cumulative Pred Release (%) (Day 14): 5.45%
Structure (SMILES): CC12C=CC(=O)C=C1CCC1C2C(O)CC2(C)C1CCC2(O)C(=O)COC(=O)OCCOCCOCCOC(=O)OCC(=O)C1(O)CCC2C3CCC4=CC(=O)C=CC4(C)C3C(O)CC21C (centres unmarked) [Pred-TEG-Pred]
Cumulative Pred Release (Day 7): 27879.94 ng and 24662.51 ng and 25461.45 ng
Cumulative Pred Release (Day 14): 55975.76 ng and 47712.14 ng and 52962.20 ng

Cumulative HC Release (Fig 5c pellet 1x1 mm, Day 1): 3582.46 ng and 3140.26 ng and 2450.67 ng
Cumulative HC Release (Fig 5c pellet 1x1 mm, Day 1, mean): 3057.80 ng
Cumulative HC Release (Fig 5c pellet 1x1 mm, Day 3): 8019.98 ng and 7816.75 ng and 5925.61 ng
Cumulative HC Release (Fig 5c pellet 1x1 mm, Day 3, mean): 7254.11 ng
Cumulative HC Release (Fig 5c pellet 1x1 mm, Day 7, mean): 19166.65 ng
Cumulative HC Release (Fig 5c pellet 1x1 mm, Day 11, mean): 31062.21 ng
Cumulative HC Release (Fig 5c pellet 1x1 mm, Day 14, mean): 38643.77 ng
Cumulative HC Release (%) (Fig 5c pellet, Day 1): 0.51%
Cumulative HC Release (%) (Fig 5c pellet, Day 3): 1.20%
Cumulative HC Release (%) (Fig 5c pellet, Day 7): 3.17%
Cumulative HC Release (%) (Fig 5c pellet, Day 11): 5.15%
Cumulative HC Release (%) (Fig 5c pellet, Day 14): 6.40%
Structure (SMILES): CC12CCC(=O)C=C1CCC1C2C(O)CC2(C)C1CCC2(O)C(=O)COC(=O)OCCOCCOCCOC(=O)OCC(=O)C1(O)CCC2C3CCC4=CC(=O)CCC4(C)C3C(O)CC21C (centres unmarked) [HC-TEG-HC]
Cumulative HC Release (Fig 5c pellet 1x1 mm, Day 7): 21489.19 ng and 20555.93 ng and 15454.82 ng
Cumulative HC Release (Fig 5c pellet 1x1 mm, Day 11): 36020.08 ng and 33028.17 ng and 24138.38 ng
Cumulative HC Release (Fig 5c pellet 1x1 mm, Day 14): 45741.74 ng and 40347.40 ng and 29842.17 ng
